Assay [1] has as its target T1, KMT9 (Homo sapiens, UniProt Q9Y5N5).
T1 sequence (Q9Y5N5 1-214): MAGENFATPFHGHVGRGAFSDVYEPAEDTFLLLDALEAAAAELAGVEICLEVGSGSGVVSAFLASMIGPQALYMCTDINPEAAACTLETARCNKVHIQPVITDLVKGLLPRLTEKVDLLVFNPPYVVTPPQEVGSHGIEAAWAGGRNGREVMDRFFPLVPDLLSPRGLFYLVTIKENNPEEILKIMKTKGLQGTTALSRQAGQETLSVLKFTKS
T1 sequence (Q9UI30 1-120 isoform Q9UI30-2 partner): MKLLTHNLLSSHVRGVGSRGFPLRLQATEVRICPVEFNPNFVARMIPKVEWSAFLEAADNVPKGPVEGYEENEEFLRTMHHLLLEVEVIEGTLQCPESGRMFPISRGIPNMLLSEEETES
Briefly: KMT9 thermal shift assay (SyproOrange). It counts as binding. In short, it runs like this: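 Recombinant KMT9 was incubated with compound and SyproOrange at 25° C in 50 mM BTP pH 8.5, 1 mM MgCl2, 1 mM DTT. It was then heated from 20° C to 95° C at 1° C per 15 s with fluorescence read each step. Tm came from a Boltzmann sigmoidal fit; ΔTm relative to DMSO control, binned in 5 K ranges.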

Assay [2] deals with T1, KMT9. Briefly: KMT9 methyltransferase inhibition assay, MTaseGlo luminescence (from entry 155). It counts as biochemical. The following applies: 100 nM KMT9, 5 μM ETF1, 1 μM SAM. A digest of the protocol: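 KMT9 (100 nM final) pre-incubated with inhibitor for 15 min at room temperature, then reacted with 5 μM ETF1 and 1 μM SAM for 2 h at 30° C. at 2% DMSO final. MTaseGlo luminescence read after 60 min detection; IC50 reported in four potency bins.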

In assay [3] the target is T1, KMT9. Briefly: Microscale thermophoresis (MST) KMT9 binding. In short, it runs like this: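 His-tagged KMT9 (20 nM), RED-Tris-NTA labelled, titrated with varying compound concentrations in 25 mM HEPES pH 7.5, 100 mM NaCl, 1 mM DTT, 0.05% Tween. MST at 40% MST and 100% LED power, Nano-RED excitation; Kd binned A ≤10 nM, B 10–100, C 100–1000, D >1000 nM.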
Background: MST reads how a fluorescent partner responds to local heating, with and without ligand.

Where [4] appears, read: ΔTm, 500 µM compound, 2 μM KMT9, 5X SO, read-out: Thermal shift.
Setting [5] is: from entry 155: MTaseGlo assay, read-out: Inhibition.
The mark [6] stands for this setting: microscale thermophoresis, His-tag labelled KMT9 (20 nM), read-out: MST.
[7] abbreviates: ΔTm class, 500 uM compound, 2 μM KMT9, read-out: Thermal shift.
Where [8] appears, read: IC50 class, MTaseGlo procedure (entries from 155 on), read-out: Inhibition.
[9] abbreviates: His-tag labelled KMT9 20 nM, Kd class, read-out: MST.
Setting [10] is: 500 µM compound, 2 μM KMT9, read-out: Thermal shift (ΔTm).
Where [11] appears, read: MTaseGlo procedure (entries from 155), read-out: Inhibition (IC50).
[12] abbreviates: His-tag labelled KMT9 20 nM, read-out: MST (Kd).

Results on 16 compounds are retold here after patent publication US20250188110A1, “SPECIFIC SMALL MOLECULE INHIBITORS THAT BLOCK KMT9 METHYLTRANSFERASE ACTIVITY AND FUNCTION” (ALBERT-LUDWIGS-UNIVERSITÄT FREIBURG, priority 2021, published 2025).

Structures are written as SMILES. Read-outs that look alike come from different tables or passages of the source.

As to `O[C@@H]1[C@@H](CNCCCNCCc2ccccc2)C[C@@H](n2cc3c4c(ncnc42)NCCCC3)[C@@H]1O` [Compound 631, (1S,2R,3R,5R)-3-(((3-(phenethylamino)propyl)amino)methyl)-5-(7,8,9,10-tetrahydro-2,3,5,6-tetraazacycloocta [cd]inden-2 (6H)-yl)cyclopentane-1,2-diol], in assay [1] (setting [4]), the ΔTm at 500 µM lay in the range of 10 to 15 °C. The IC50 in assay [2] (setting [5]) fell in the range of 1000 to 10000 nM. Moreover, the Kd in assay [3] (setting [6]) fell in the range of 10 to 100 nM.

With `O[C@@H]1[C@@H](CNCCCNCCc2ccccc2)C[C@@H](n2cc(-c3nc(Cc4ccccc4)cs3)c3cnc(Cl)nc32)[C@@H]1O` [Compound 634, (1R,2S,3R,5R)-3-(5-(4-Benzylthiazol-2-yl)-2-chloro-7H-pyrrolo[2,3-d]pyrimidin-7-yl)-5-(((3-(phenethylamino)propyl)amino)methyl)cyclopentane-1,2-diol], in assay [1] (setting [4]), the ΔTm at 500 µM lay in the range of 15 to 20 °C. Besides, in assay [2] (setting [5]), the IC50 was in the range of 1000 to 10000 nM. In addition, the Kd in assay [3] (setting [6]) was in the range of 10 to 100 nM.

For `Nc1nc(Cl)nc2c1c(-c1nc(Cc3ccccc3)cs1)cn2[C@@H]1C[C@H](CNCCCNCCc2ccccc2)[C@@H](O)[C@H]1O` [Compound 635, (1R,2S,3R,5R)-3-(4-Amino-5-(4-benzylthiazol-2-yl)-2-chloro-7H-pyrrolo[2,3-d]pyrimidin-7-yl)-5-(((3-(phenethylamino)propyl)amino)methyl)cyclopentane-1,2-diol], the ΔTm at 500 µM in assay [1] (setting [4]) is 15 to 20 °C. Further, the IC50 in assay [2] (setting [5]) lay in the range of 100 to 1000 nM. In addition, the Kd in assay [3] (setting [6]) lay in the range of 100 to 1000 nM.

Consider `Nc1nc(Cl)nc2c1c(-c1ccn(Cc3ccccc3)n1)cn2[C@@H]1C[C@H](CNCCCNCCc2ccccc2)[C@@H](O)[C@H]1O` [Compound 636, (1R,2S,3R,5R)-3-(4-Amino-5-(1-benzyl-1H-pyrazol-3-yl)-2-chloro-7H-pyrrolo[2,3-d]pyrimidin-7-yl)-5-(((3-(phenethylamino)propyl)amino)methyl)cyclopentane-1,2-diol], for which, in assay [1] (setting [4]), the ΔTm at 500 µM was above 20 °C. Moreover, the IC50 in assay [2] (setting [5]) is 100 to 1000 nM. The Kd in assay [3] (setting [6]) is at most 10 nM.

On to `O[C@@H]1[C@@H](CNCCCNCCc2ccccc2)C[C@@H](n2cc(-c3cc(Cc4ccccc4)cs3)c3cncnc32)[C@@H]1O` [Compound 637, (1R,2S,3R,5R)-3-(5-(4-benzylthiophen-2-yl)-7H-pyrrolo[2,3-d]pyrimidin-7-yl)-5-(((3-(phenethylamino)propyl)amino)methyl)cyclopentane-1,2-diol], for which, in assay [1] (setting [4]), the ΔTm at 500 µM lay within 10 to 15 °C. Also, in assay [2] (setting [5]), the IC50 is 1000 to 10000 nM. Also, the Kd in assay [3] (setting [6]) is above 1000 nM.

For `O[C@@H]1[C@@H](CNCCCNCCc2ccccc2)C[C@@H](n2cc(-c3nccs3)c3cnc(Cl)nc32)[C@@H]1O` [Compound 638, (1R,2S,3R,5R)-3-(2-Chloro-5-(thiazol-2-yl)-7H-pyrrolo[2,3-d]pyrimidin-7-yl)-5-(((3-(phenethylamino)propyl)amino)methyl)cyclopentane-1,2-diol], the ΔTm at 500 µM in assay [1] (setting [4]) is 15 to 20 °C. Further, the IC50 in assay [2] (setting [5]) lay in the range of 1000 to 10000 nM. Besides, in assay [3] (setting [6]), the Kd fell in the range of 100 to 1000 nM.

As to `O[C@@H]1[C@@H](CNCCCNCCc2ccccc2)C[C@@H](n2cc(-c3nc(Oc4ccccc4)cs3)c3cncnc32)[C@@H]1O` [Compound 639, (1S,2R,3R,5R)-3-(((3-(Phenethylamino)propyl)amino)methyl)-5-(5-(4-phenoxythiazol-2-yl)-7H-pyrrolo[2,3-d]pyrimidin-7-yl)cyclopentane-1,2-diol], the ΔTm at 500 µM in assay [1] (setting [4]) lay within 10 to 15 °C. The IC50 in assay [2] (setting [5]) was in the range of 1000 to 10000 nM. Also, in assay [3] (setting [6]), the Kd is above 1000 nM.

Turning to `CS(=O)(=O)n1ccc(-c2cn([C@@H]3C[C@H](CNCCCNCCc4ccccc4)[C@@H](O)[C@H]3O)c3ncncc23)n1` [Compound 640, (1R,2S,3R,5R)-3-(5-(1-(Methylsulfonyl)-1H-pyrazol-3-yl)-7H-pyrrolo[2,3-d]pyrimidin-7-yl)-5-(((3-(phenethylamino)propyl)amino)methyl)cyclopentane-1,2-diol], the ΔTm at 500 µM in assay [1] (setting [4]) was in the range of 10 to 15 °C. Moreover, in assay [2] (setting [5]), the IC50 fell in the range of 1000 to 10000 nM. The Kd in assay [3] (setting [6]) is above 1000 nM.

On to `O[C@@H]1[C@@H](CN(CCCNCCc2ccccc2)c2cn[nH]c2)C[C@@H](n2cc(-c3cccs3)c3cnc(Cl)nc32)[C@@H]1O` [Compound 641, (1R,2S,3R,5R)-3-(2-Chloro-5-(thiophen-2-yl)-7H-pyrrolo[2,3-d]pyrimidin-7-yl)-5-(((3-(phenethylamino)propyl)(1H-pyrazol-4-yl)amino)methyl)cyclopentane-1,2-diol], for which the ΔTm at 500 µM in assay [1] (setting [7]) is 15 to 20 °C. The IC50 in assay [2] (setting [8]) lay in the range of 100 to 1000 nM. In assay [3] (setting [9]), the Kd is at most 10 nM.

On to `CN(CCCNCCc1ccc(F)cc1)C[C@H]1C[C@@H](n2cc(-c3ccn(Cc4ccccc4)n3)c3cnc(Cl)nc32)[C@H](O)[C@@H]1O` [Compound 642, (1R,2S,3R,5R)-3-[5-(1-Benzylpyrazol-3-yl)-2-chloropyrrolo[2,3-d]pyrimidin-7-yl]-5-{[(3-{[2-(4-fluorophenyl)ethyl]amino}propyl)(methyl)amino]methyl}cyclopentane-1,2-diol], for which the ΔTm at 500 µM in assay [1] (setting [7]) fell in the range of 15 to 20 °C. Also, in assay [2] (setting [8]), the IC50 fell in the range of 1000 to 10000 nM. Moreover, the Kd in assay [3] (setting [9]) was in the range of 10 to 100 nM.

Take `CN(CCCNCCc1ccc(F)cc1)C[C@H]1C[C@@H](n2cc(-c3ccn(Cc4ccccc4)n3)c3c(N)nc(Cl)nc32)[C@H](O)[C@@H]1O` [Compound 643, (1R,2S,3R,5R)-3-[4-Amino-5-(1-benzylpyrazol-3-yl)-2-chloropyrrolo[2,3-d]pyrimidin-7-yl]-5-{[(3-{[2-(4-fluorophenyl)ethyl]amino}propyl)(methyl)amino]methyl}cyclopentane-1,2-diol]: in assay [1] (setting [10]), the ΔTm at 500 µM is above 20 °C. Moreover, the IC50 in assay [2] (setting [11]) is 100 to 1000 nM. The Kd in assay [3] (setting [12]) was at most 10 nM.

As for `CN(CCCNCCc1ccc(F)cc1)C[C@H]1C[C@@H](n2cc(-c3ccn(C)n3)c3cnc(Cl)nc32)[C@H](O)[C@@H]1O` [Compound 644, (1R,2S,3R,5R)-3-[2-Chloro-5-(1-methylpyrazol-3-yl)pyrrolo[2,3-d]pyrimidin-7-yl]-5-{[(3-{[2-(4-fluorophenyl)ethyl]amino}propyl)(methyl)amino]methyl}cyclopentane-1,2-diol], in assay [1] (setting [7]), the ΔTm at 500 µM was at most 10 °C. The IC50 in assay [2] (setting [8]) is above 10000 nM. Moreover, the Kd in assay [3] (setting [9]) was above 1000 nM.

Regarding `CN(CCCNCCc1ccc(F)cc1)C[C@H]1C[C@@H](n2cc(-c3ccn(C)n3)c3c(N)nc(Cl)nc32)[C@H](O)[C@@H]1O` [Compound 645, (1R,2S,3R,5R)-3-[4-Amino-2-chloro-5-(1-methylpyrazol-3-yl)pyrrolo[2,3-d]pyrimidin-7-yl]-5-{[(3-{[2-(4-fluorophenyl)ethyl]amino}propyl)(methyl)amino]methyl}cyclopentane-1,2-diol], in assay [1] (setting [10]), the ΔTm at 500 µM was above 20 °C. Moreover, the IC50 in assay [2] (setting [11]) lay in the range of 100 to 1000 nM. Moreover, in assay [3] (setting [12]), the Kd fell in the range of 10 to 100 nM.

As to `Nc1nc(Cl)nc2c1c(-c1nc(Cc3ccccc3)cs1)cn2[C@@H]1C[C@H](CNCCCNCCc2ccc(F)cc2)[C@@H](O)[C@H]1O` [Compound 646, (1R,2S,3R,5R)-3-(4-Amino-5-(4-benzylthiazol-2-yl)-2-chloro-7H-pyrrolo[2,3-d]pyrimidin-7-yl)-5-(((3-((4-fluorophenethyl)amino)propyl)amino)methyl)cyclopentane-1,2-diol], the ΔTm at 500 µM in assay [1] (setting [7]) was above 20 °C. Moreover, in assay [2] (setting [8]), the IC50 fell in the range of 100 to 1000 nM. The Kd in assay [3] (setting [9]) lay within 10 to 100 nM.

Take `CN(CCCNCCc1ccc(F)cc1)C[C@H]1C[C@@H](n2cc(-c3nc(Cc4ccccc4)cs3)c3c(N)nc(Cl)nc32)[C@H](O)[C@@H]1O` [Compound 647, (1R,2S,3R,5R)-3-(4-Amino-5-(4-benzylthiazol-2-yl)-2-chloro-7H-pyrrolo[2,3-d]pyrimidin-7-yl)-5-(((3-((4-fluorophenethyl)amino)propyl)(methyl)amino)methyl)cyclopentane-1,2-diol]: in assay [1] (setting [10]), the ΔTm at 500 µM was above 20 °C. In addition, the IC50 in assay [2] (setting [11]) lay within 1000 to 10000 nM. Moreover, in assay [3] (setting [12]), the Kd fell in the range of 10 to 100 nM.

Take `CN(CCCNCCc1ccc(F)cc1)C[C@H]1C[C@@H](n2cc(-c3nccs3)c3c(N)nc(Cl)nc32)[C@H](O)[C@@H]1O` [Compound 648, (1R,2S,3R,5R)-3-[4-Amino-2-chloro-5-(1,3-thiazol-2-yl)pyrrolo[2,3-d]pyrimidin-7-yl]-5-{[(3-{[2-(4-fluorophenyl)ethyl]amino}propyl)(methyl)amino]methyl}cyclopentane-1,2-diol]: the ΔTm at 500 µM in assay [1] (setting [10]) was above 20 °C. For the same compound, in assay [2] (setting [11]), the IC50 is 100 to 1000 nM. Besides, in assay [3] (setting [12]), the Kd is at most 10 nM.
